Test results from paper PMC6265740, “Biochemical and Anti-Triple Negative Metastatic Breast Tumor Cell Properties of Psammaplins” (Marine Drugs, 2018).

Legend:
[1] = tested on: VEGF protein; assay: ELISA of cellular and secreted VEGF proteins in T47D cells; type: cell-based, human; conditions: normalized to cellular proteins
Excerpt: (§1) Around 100 genes have been identified as HIF-1 target genes that encode proteins involved in various aspects of cellular physiology. While most of these genes are regulated in a cell type-specific manner, some are induced upon HIF-1 activation in most cell types. Based on availability and potency, compound 4 (a stereoisomer of 2) was selected for follow-up studies. The effects of 4 on the expression of HIF-1 target genes cyclin dependent kinase inhibitor 1A (CDKN1A) and vascular endothelial growth factor A (VEGFA) were examined by quantitative real time RT-PCR (Figure 2). The HIF-1 activator 1,10-phen (10 μM) and the pan-HDAC inhibitor TSA (0.1 and 1 μM, respectively) were included as positive controls. In T47D cells, 4 and TSA each increased the levels of CDKN1A mRNA in a concentration-dependent manner (2.9-fold for 4 at 10 μM and 7.2-fold for TSA at 1 μM, Figure 2A). In contrast, neither 4 nor TSA exerted greater than 20% effect on the levels of VEGF mRNA (Figure 2B). The gene VEGF encodes vascular endothelial growth factor A (a potent angiogenic factor) and agents that inhibit VEGF are in clinical use for cancer. The expression of cellular and secreted VEGF proteins was examined in T47D cells by ELISA assay.
Figure 2 Effects of 4 and trichostatin A (TSA) on HIF-1 target gene expression. T47D cells were exposed to 4 and TSA at the specified concentrations for 16 h. The compound 1,10-phen (10 µM) was included as a positive control. The levels of cyclin dependent kinase inhibitor 1A (CDKN1A) (A) and vascular endothelial growth factor (VEGF) (B) mRNA following treatments were determined by quantitative real time RT-PCR. Relative levels of target gene mRNA normalized to an internal control (18S rRNA) are shown as average ± standard deviation (n = 3, one representative experiment). The levels of cellular (C) and secreted VEGF protein (D) were determined by ELISA and normalized to the amount of cellular proteins. Data shown are average + standard deviation (n = 3). An asterisk “*” indicates p < 0.05 when compared to the media control.
(§2) The effects of test samples on HIF-1 target gene expression were assessed in T47D cells. To determine the levels of CDKN1A and VEGF mRNA, quantitative real-time RT-PCR was performed as described. To determine the levels of cellular and secreted VEGF proteins, T47D cells were exposed to compounds as described, the levels of VEGF proteins in the conditioned medium and cell lysate samples determined by ELISA [21], the amount of proteins in the cell lysate samples quantified using a micro BCA assay kit (Thermo Fisher Scientific, Rockford, IL, USA), and the level of VEGF proteins normalized to that of cellular proteins.

[2] = tested on: VEGF mRNA; assay: Quantitative real time RT-PCR of VEGF mRNA in T47D cells; type: cell-based, human; conditions: 16 h
Excerpt: as §1, with “The gene VEGF encodes vascular endothelial growth factor A (a potent angiogenic factor) and agents that inhibit VEGF are in clinical use for cancer. The expression of cellular and secreted VEGF proteins was examined in T47D cells by ELISA assay.” left out
(§3) Figure 2 Effects of 4 and trichostatin A (TSA) on HIF-1 target gene expression. […] The levels of cyclin dependent kinase inhibitor 1A (CDKN1A) (A) and vascular endothelial growth factor (VEGF) (B) mRNA following treatments were determined by quantitative real time RT-PCR. […] The levels of cellular (C) and secreted VEGF protein (D) were determined by ELISA and normalized to the amount of cellular proteins. […]
as §2

[3] = tested on: BoM spheroids; assay: Cultrex 3D spheroid cell invasion assay; type: cell-based, human; conditions: 96 h (T96), 4 and TSA at 48 h proliferation IC50
Procedure: In order to form metastatic lesions, metastasis-initiating tumor cells must invade and intravasate into the lymphatic vasculature and/or blood vessels. Psammaplins were evaluated in a Cultrex® 3-D cell invasion assay that monitors the invasion and migration of tumor cells grown as spheroids, which closely model in vivo pathophysiological conditions.
Figure 5 Inhibition of bone metastatic BoM cell invasion. Tumor cell spheroids formed in a special spheroid formation extracellular matrix (ECM) were embedded in an invasion matrix containing 10% fetal bovine serum (FBS) in the presence and absence of compounds at the specified concentrations. Four days later (T96), cell invasion was recorded microscopically (the bar at the bottom right represents 100 µm).
The 3D spheroid cell invasion assay was performed using a commercial kit, following the manufacturer’s instructions (Cultrex® 3D Spheroid Cell Invasion Assay, Trevigen, Gaithersburg, MD, USA). Briefly, exponentially grown MDA-MB-231, LM, BoM, and BrM cells were trypsinized, collected, and resuspended in serum-free DMEM/F12 media. For spheroid formation, 3000 cells were added in a volume of 50 µL serum-free DMEM/F12 media with 1× spheroid formation solution/well into a pre-cooled 96-well plate. The plate was centrifuged at 100× g for 5 min at 4 °C, incubated at 37 °C for 24 h, and the spheroids imaged using an Axiovert 40 CFL microscope (Zeiss, Oberkochen, Germany). The plate was placed on ice, the invasion mix added in a volume of 50 µL/well, centrifuged at 350× g for 5 min at 4 °C, and incubated at 37 °C for 1 h. Test compounds and controls were diluted to two times the final concentrations in DMEM/F12 media supplemented with FBS (10%) and antibiotics, and added in a volume of 100 µL/well. The incubation continued for another 4 days at 37 °C and the cells/spheroids imaged (T96).

[4] = tested on: CDKN1A mRNA; assay: Quantitative real time RT-PCR of CDKN1A mRNA in T47D cells; type: cell-based, human; conditions: 1 μM, 16 h
Excerpt: Around 100 genes have been identified as HIF-1 target genes that encode proteins involved in various aspects of cellular physiology. While most of these genes are regulated in a cell type-specific manner, some are induced upon HIF-1 activation in most cell types. Based on availability and potency, compound 4 (a stereoisomer of 2) was selected for follow-up studies. The effects of 4 on the expression of HIF-1 target genes cyclin dependent kinase inhibitor 1A (CDKN1A) and vascular endothelial growth factor A (VEGFA) were examined by quantitative real time RT-PCR (Figure 2). The HIF-1 activator 1,10-phen (10 μM) and the pan-HDAC inhibitor TSA (0.1 and 1 μM, respectively) were included as positive controls. […]
as §3
The effects of test samples on HIF-1 target gene expression were assessed in T47D cells. To determine the levels of CDKN1A and VEGF mRNA, quantitative real-time RT-PCR was performed as described. […]

[5] = tested on: HDAC; assay: MDA-MB-435 cell-based HDAC assay (HDAC-Glo); conditions: MDA-MB-435 cells, 30 min incubation, n = 6 pooled from two experiments
Procedure: Test compounds were added at specified concentrations to exponentially grown cells plated in 96-well plates. After 30 min incubation, the HDAC activity was determined using a commercial kit (HDAC-Glo™, Promega, Madison, WI, USA) and normalized to that of the dimethyl sulfoxide (DMSO) solvent control.
Exponentially grown cells were seeded at the density of 5000 cells/well into 96-well plates (Corning, Corning, NY, USA) and incubated overnight. Compounds dissolved in DMSO were added to achieve the specified final concentrations (total volume: 100 μL, DMSO: 0.5%). The incubation continued for 30 min at 37 °C and the HDAC activity determined using a commercial luminescent assay (HDAC-Glo™, Promega, Madison, WI, USA).

[6] = tested on: HIF-1; assay: T47D cell-based reporter assay (pHRE-luc) for HIF-1 activity; set-up: species or system human; conditions: 10 μM; for HIF-1 activation (highest level): T47D pHRE-luc, 16 h, no stimulus, n = 3; for normalized ratio of pHRE-luc/pGL3-control: T47D
Procedure: Cellular adaptation to hypoxia (low oxygen tension) is primarily mediated via the transcription factor hypoxia-inducible factor-1 (HIF-1), that regulates oxygen homeostasis by activating the expression of genes that increase oxygen availability and those that decrease oxygen consumption. […] In a T47D cell-based reporter assay, a lipid extract sample of the sponge Dendrilla lacunosa activated HIF-1 by 3.56-fold (NIH collection No. C025691, 10 μg mL^−1). Bioassay-guided fractionation of the extract sample (2.6 g) and chemical structure elucidation afforded five known compounds psammaplin E (1), (E,Z)-psammaplin A (2), (E,E)-psammaplin K (3), (E,E)-psammaplin A (4), and bisaprasin (5). To determine the effects of 1–5 on HIF-1 activity, concentration-response studies were performed in a T47D cell-based reporter assay (Figure 1B). An iron chelator (1,10-phenanthroline, 10 μM) was included as a positive control. Compounds 1–4 activated HIF-1 in a biphasic manner. […] Hypoxia (1% O2) and chemical hypoxia (iron chelators or transition metals) represent two common stimuli that activate HIF-1 [24, 25, 26]. Further studies were performed to determine the effects of 1–5 on HIF-1 activity in the presence of other stimuli (1,10-phenanthroline, Figure 1C; hypoxia, Figure 1D). While 1–4 acted synergistically with 1,10-phenanthroline and hypoxia to activate HIF-1, a biphasic pattern of activation similar to that in the absence of stimulus […] was observed. […] Previous studies reported that psammaplins inhibit histone deacetylase (HDAC) enzymes. To determine if HDAC inhibition non-specifically activates HIF-1, concentration-response studies were conducted in T47D cells transfected with the pGL3-control plasmid. […] One possible scenario is that these compounds incur significant amount of cellular stress at higher concentrations, leading to the inhibition of gene expression in general.
Figure 1 Concentration-dependent biphasic effects of 1–4 on HIF-1 activation. (A) Structures of psammaplins isolated from Dendrilla lacunosa. (B) Concentration-response results of 1–5 in T47D cells transfected with pHRE-luc for HIF-1 activity. Test compounds were added at the increasing concentrations of 0.1, 0.3, 1, 3, 10, and 30 µM, as specified. The positive control 1,10-phenanthroline (1,10-phen) was used at 10 µM. Data shown are average ± standard deviation (n = 3). (C) Similar to described in (B) except that the pHRE-luc transfected T47D cells were exposed to test compounds in the presence of 10 µM 1,10-phen, and the data were normalized to the positive control (1,10-phen). (D) Similar to described in (C) except that hypoxic exposure (1% O2: 5% CO2: 94% N2, 16 h) was applied in place of 1,10-phen. (E) As described in (B) except that T47D cells were transfected with the pGL3-control construct. An asterisk “*” indicates p < 0.05 when compared to the controls (“Media” for B, D, and E; and “1,10-phen” for C).
To monitor HIF-1 activity, T47D cells were transfected with the pHRE3-TK-Luc construct and the cell-based luciferase reporter assay was performed as described. Cells were exposed to test compounds in the absence and presence of 1,10-phenanthroline (10 μM) or hypoxic conditions (1% O2: 5% CO2: 94% N2) for 16 h. The cells were lysed and luciferase activity determined with a commercial kit (Promega, Madison, WI, USA). For the cell-based control reporter assay, T47D cells were transfected with the pGL3-control construct (Promega, Madison, WI, USA), exposed to test compounds for 16 h, and the luciferase reporter assay performed as described.

## CC(/C=C/C(=O)NO)=C\[C@@H](C)C(=O)c1ccc(N(C)C)cc1 [TSA, trichostatin A]
[1]
  VEGF expression, cellular protein: None of the HDAC inhibitors examined (4 and TSA) increased VEGF protein levels
  VEGF expression, secreted protein: None of the HDAC inhibitors examined (4 and TSA) increased VEGF protein levels
[2]; concentrations tested
  effect on the levels of VEGF mRNA: ≤ 20%
[3]
  invasion of BoM spheroids into the extracellular matrix: inhibited the invasion of BoM spheroids
[4]
  increase in CDKN1A mRNA level: 7.2 fold

## NC(=O)C(=O)NCCSSCCNC(=O)/C(Cc1ccc(O)c(Br)c1)=N/O [Compound 1, psammaplin E]
[5]
  IC50: 0.257 µM
[6]
  HIF-1 activation (highest level): 12.01 ± 1.12 fold
  normalized ratio of pHRE-luc/pGL3-control: 2.64 fold

## c1cnc2c(c1)ccc1cccnc12 [1,10-phen, 1,10-phenanthroline]
[1]
  VEGF expression, cellular protein: induced VEGF expression
  VEGF expression, secreted protein: induced VEGF expression
[2]; 10 μM
  VEGF expression, mRNA: induced VEGF expression

## O=C(NCCSSCCNC(=O)/C(Cc1cc(O)c(O)c(Br)c1)=N/O)/C(Cc1ccc(O)c(Br)c1)=N/O [Compound 3, (E,E)-psammaplin K]
[5]
  IC50: 0.038 µM
[6]
  HIF-1 activation (highest level): 10.15 ± 0.66 fold
  normalized ratio of pHRE-luc/pGL3-control: 2.38 fold
